According to US10376520B2, “Methods for the treatment of cardiovascular disorders” (Galapagos NV, priority 2015, dated 2019):

System: RA patients
Test: Total cholesterol determination, Study 2 (RA patients, monotherapy with Compound 1)
Format: in vivo, human
Source text: Randomized, double-blind, placebo-controlled, multicenter, phase IIb dose finding study of Compound 1 (dosed as a [Compound 1:HCl:3H2O]) administered for 24 weeks as monotherapy to subjects with moderately to severely active rheumatoid arthritis who have an inadequate response to methotrexate alone
Double-blind, placebo-controlled, monotherapy study in subjects with moderately to severely active RA who have an inadequate response to methotrexate (MTX) (oral or parenteral).
280 subjects randomized to one of 3 doses of Compound 1 (dosed as a [Compound 1:HCl:3H2O]) or to placebo, given once daily (q.d.).
Twelve weeks of treatment with Compound 1 (dosed as a [Compound 1:HCl:3H2O]) at 50 mg, 100 mg, or 200 mg q.d.; or placebo. At Week 12, all subjects on placebo and the subjects on the 50 mg dose who have not achieved 20% improvement in swollen joint count (SJC66) and tender joint count (TJC68) will be assigned to 100 mg q.d. in a blinded fashion and will continue treatment until Week 24. Subjects in the other groups will maintain their randomized treatment until Week 24.
This method is based on the determination of Δ^4 cholestenone after enzymatic cleavage of the cholesterol ester by cholesterol esterase, conversion of cholesterol by cholesterol oxidase, and subsequent measurement by the Trinder reaction of the hydrogen peroxide formed (Allain et al., 1974).
Cholesterol esters are cleaved by the action of cholesterol esterase to yield free cholesterol and fatty acids. Cholesterol oxidase then catalyzes the oxidation of cholesterol to cholest-4-en-3-one and hydrogen peroxide. In the presence of peroxidase, the hydrogen peroxide formed effects the oxidative coupling of phenol and 4-aminophenazone to form a red quinone-imine dye. The color intensity of the dye formed is directly proportional to the cholesterol concentration. It is determined by measuring the increase in absorbance.
Human serum and plasma samples cholesterol determination was done on a Roche/Hitachi Cobas c 701/702 system which automatically calculate the analyte concentration of each sample.

[1] = placebo switching to 100 mg q.d. at week 12, week 16
[2] = placebo switching to 100 mg q.d. at week 12, week 20
[3] = placebo switching to 100 mg q.d. at week 12, week 24

In the case of O=C(Nc1nc2cccc(-c3ccc(CN4CCS(=O)(=O)CC4)cc3)n2n1)C1CC1 [Compound 1, cyclopropanecarboxylic acid {5-[4-(1,1-dioxo-thiomorpholin-4-ylmethyl)-phenyl]-[1,2,4]triazolo[1,5-a]pyridin-2yl}-amide], the “[total cholesterol] Mean percentage CFB - 24 weeks results” value (200 mg q.d., week 4) is reported as 9.35%, the “[total cholesterol] Median percentage CFB - 24 weeks results” value (200 mg q.d., week 4) is reported as 7.39% and the “[total cholesterol] Mean percentage CFB - 12 weeks results” value (200 mg q.d., week 8) is reported as 9.62%. The “[total cholesterol] Mean percentage CFB - 24 weeks results” value (200 mg q.d., week 8) was 9.62%, the “[total cholesterol] Median percentage CFB - 24 weeks results” value (200 mg q.d., week 8) was 9.01% and the “[total cholesterol] Mean percentage CFB - 12 weeks results” value (200 mg q.d., week 12) was 13.12%. The “[total cholesterol] Mean percentage CFB - 24 weeks results” value (200 mg q.d., week 12) was 13.12%, the “[total cholesterol] Median percentage CFB - 24 weeks results” value (200 mg q.d., week 12) was 11.96% and the “[total cholesterol] Mean percentage CFB - 24 weeks results” value (200 mg q.d., week 16) was 11.40%. For the same compound, the “[total cholesterol] Median percentage CFB - 24 weeks results” value (200 mg q.d., week 16) was 8.36%, the “[total cholesterol] Mean percentage CFB - 24 weeks results” value (200 mg q.d., week 20) was 11.67% and the “[total cholesterol] Median percentage CFB - 24 weeks results” value (200 mg q.d., week 20) was 11.04%. The “[total cholesterol] Mean percentage CFB - 24 weeks results” value (200 mg q.d., week 24) was 12.83%, the “[total cholesterol] Median percentage CFB - 24 weeks results” value (200 mg q.d., week 24) was 9.81% and the “[Total cholesterol] Median CFB” value (Study 2 12 weeks results, 50 mg q.d., week 1) was 0.100 mmol/L. For the same compound, the “[Total cholesterol] Median CFB” value (Study 2 12 weeks results, 50 mg q.d., week 2) was 0.000 mmol/L, the “[Total cholesterol] Median CFB” value (Study 2 12 weeks results, 50 mg q.d., week 4) was 0.000 mmol/L and the “[Total cholesterol] Median CFB” value (Study 2 12 weeks results, 50 mg q.d., week 8) was 0.250 mmol/L. The “[Total cholesterol] Median CFB” value (Study 2 12 weeks results, 50 mg q.d., week 12) was 0.140 mmol/L, the “[Total cholesterol] Median CFB” value (Study 2 12 weeks results, 100 mg q.d., week 1) was 0.100 mmol/L and the “[Total cholesterol] Median CFB” value (Study 2 12 weeks results, 100 mg q.d., week 2) was 0.140 mmol/L. The “[Total cholesterol] Median CFB” value (Study 2 12 weeks results, 100 mg q.d., week 4) was 0.265 mmol/L, the “[Total cholesterol] Median CFB” value (Study 2 12 weeks results, 100 mg q.d., week 8) was 0.250 mmol/L and the “[Total cholesterol] Median CFB” value (Study 2 12 weeks results, 100 mg q.d., week 12) was 0.350 mmol/L. The “[Total cholesterol] Median CFB” value (Study 2 12 weeks results, 200 mg q.d., week 1) was 0.260 mmol/L, the “[Total cholesterol] Median CFB” value (Study 2 12 weeks results, 200 mg q.d., week 2) was 0.330 mmol/L and the “[Total cholesterol] Median CFB” value (Study 2 12 weeks results, 200 mg q.d., week 4) was 0.390 mmol/L. For the same compound, the “[Total cholesterol] Median CFB” value (Study 2 12 weeks results, 200 mg q.d., week 8) was 0.400 mmol/L, the “[Total cholesterol] Median CFB” value (Study 2 12 weeks results, 200 mg q.d., week 12) was 0.560 mmol/L and the “[Total cholesterol] Median CFB” value (Study 2 24 weeks results, 50 mg q.d. non responders switching to 100 mg q.d. at week 12, week 1) was 0.150 mmol/L. For the same compound, the “[Total cholesterol] Median CFB” value (Study 2 24 weeks results, 50 mg q.d. non responders switching to 100 mg q.d. at week 12, week 2) was 0.100 mmol/L, the “[Total cholesterol] Median CFB” value (Study 2 24 weeks results, 50 mg q.d. non responders switching to 100 mg q.d. at week 12, week 4) was 0.350 mmol/L and the “[Total cholesterol] Median CFB” value (Study 2 24 weeks results, 50 mg q.d. non responders switching to 100 mg q.d. at week 12, week 8) was 0.140 mmol/L. For the same compound, the “[Total cholesterol] Median CFB” value (Study 2 24 weeks results, 50 mg q.d. non responders switching to 100 mg q.d. at week 12, week 12) was 0.330 mmol/L, the “[Total cholesterol] Median CFB” value (Study 2 24 weeks results, 50 mg q.d. non responders switching to 100 mg q.d. at week 12, week 16) was 0.540 mmol/L and the “[Total cholesterol] Median CFB” value (Study 2 24 weeks results, 50 mg q.d. non responders switching to 100 mg q.d. at week 12, week 20) was 0.280 mmol/L. The “[Total cholesterol] Median CFB” value (Study 2 24 weeks results, 50 mg q.d. non responders switching to 100 mg q.d. at week 12, week 24) was 0.550 mmol/L, the “[Total cholesterol] Median CFB” value (Study 2 24 weeks results, 50 mg q.d. responders, week 1) was 0.020 mmol/L and the “[Total cholesterol] Median CFB” value (Study 2 24 weeks results, 50 mg q.d. responders, week 2) was -0.040 mmol/L. The “[Total cholesterol] Median CFB” value (Study 2 24 weeks results, 50 mg q.d. responders, week 4) was -0.030 mmol/L, the “[Total cholesterol] Median CFB” value (Study 2 24 weeks results, 50 mg q.d. responders, week 8) was 0.350 mmol/L and the “[Total cholesterol] Median CFB” value (Study 2 24 weeks results, 50 mg q.d. responders, week 12) was 0.060 mmol/L. The “[Total cholesterol] Median CFB” value (Study 2 24 weeks results, 50 mg q.d. responders, week 16) was 0.165 mmol/L, the “[Total cholesterol] Median CFB” value (Study 2 24 weeks results, 50 mg q.d. responders, week 20) was 0.215 mmol/L and the “[Total cholesterol] Median CFB” value (Study 2 24 weeks results, 50 mg q.d. responders, week 24) was 0.250 mmol/L. The “[Total cholesterol] Median CFB” value (Study 2 24 weeks results, 100 mg q.d., week 1) was 0.100 mmol/L, the “[Total cholesterol] Median CFB” value (Study 2 24 weeks results, 100 mg q.d., week 2) was 0.140 mmol/L and the “[Total cholesterol] Median CFB” value (Study 2 24 weeks results, 100 mg q.d., week 4) was 0.265 mmol/L. The “[Total cholesterol] Median CFB” value (Study 2 24 weeks results, 100 mg q.d., week 8) was 0.250 mmol/L, the “[Total cholesterol] Median CFB” value (Study 2 24 weeks results, 100 mg q.d., week 12) was 0.350 mmol/L and the “[Total cholesterol] Median CFB” value (Study 2 24 weeks results, 100 mg q.d., week 16) was 0.400 mmol/L. The “[Total cholesterol] Median CFB” value (Study 2 24 weeks results, 100 mg q.d., week 20) was 0.400 mmol/L, the “[Total cholesterol] Median CFB” value (Study 2 24 weeks results, 100 mg q.d., week 24) was 0.445 mmol/L and the “[Total cholesterol] Median CFB” value (Study 2 24 weeks results, 200 mg q.d., week 1) was 0.260 mmol/L. The “[Total cholesterol] Median CFB” value (Study 2 24 weeks results, 200 mg q.d., week 2) was 0.330 mmol/L, the “[Total cholesterol] Median CFB” value (Study 2 24 weeks results, 200 mg q.d., week 4) was 0.390 mmol/L and the “[Total cholesterol] Median CFB” value (Study 2 24 weeks results, 200 mg q.d., week 8) was 0.400 mmol/L. For the same compound, the “[Total cholesterol] Median CFB” value (Study 2 24 weeks results, 200 mg q.d., week 12) was 0.560 mmol/L, the “[Total cholesterol] Median CFB” value (Study 2 24 weeks results, 200 mg q.d., week 16) was 0.410 mmol/L and the “[Total cholesterol] Median CFB” value (Study 2 24 weeks results, 200 mg q.d., week 20) was 0.490 mmol/L. The “[Total cholesterol] Median CFB” value (Study 2 24 weeks results, 200 mg q.d., week 24) was 0.565 mmol/L, the “[Total cholesterol] Median CFB” value (Study 2 24 weeks results, placebo switching to 100 mg q.d. at week 12, week 16) was 0.200 mmol/L and the “[Total cholesterol] Median CFB” value (Study 2 24 weeks results, placebo switching to 100 mg q.d. at week 12, week 20) was 0.220 mmol/L. The “[Total cholesterol] Median CFB” value (Study 2 24 weeks results, placebo switching to 100 mg q.d. at week 12, week 24) was 0.300 mmol/L, the “[total cholesterol] Mean percentage CFB - 24 weeks results” value [1] was 5.14% and the “[total cholesterol] Median percentage CFB - 24 weeks results” value [1] was 3.87%. The “[total cholesterol] Mean percentage CFB - 24 weeks results” value [2] was 7.27%, the “[total cholesterol] Median percentage CFB - 24 weeks results” value [2] was 5.09% and the “[total cholesterol] Mean percentage CFB - 24 weeks results” value [3] was 6.98%. For the same compound, the “[total cholesterol] Median percentage CFB - 24 weeks results” value [3] was 5.57%.
